# Key:
# surface HLA-I = test: USP7 inhibitor treatment of MKL-1 p53-WT control and p53-KO lines, surface HLA I by flow cytometry; type: cell-based, human
# Protocol: For MCC-301 USP7 inhibitor experiments, two and a half million MCC cells were plated in a T25 flask and incubated with the USP7 inhibitor XL177A and control enantiomer XL177B at 10 μM, 1 μM, 100 nM, and 10 nM. Cells were incubated for 3 to 4 days. Post incubation, one million cells were treated with Versene (Gibco) to dissociate cell clusters. Surface Fc receptors were blocked with 5 μL Human TruStain FcX (Biolegend #422302). Surface HLA-I was stained with 5 μL of Pan HLA-Class I antibody (Clone W6/32, Santa Cruz Biotechnologies) for 30 minutes in dark at 4° C. Cells were washed with PBS and fixed with 4% paraformaldehyde fixation buffer (Biolegend). Cells were analyzed on a BD LSRFortessa. MCC-301 data are representative of 4 independent experiments. To perform statistical analysis, for each cell line, one-way ANOVA was first performed on the MFIs of the DMSO group and all experimental groups. Then, individual Welch t-tests were performed for each concentration, comparing the fold-changes of MFI (inhibitor)/mean MFI (DMSO control) between XL177A and XL177B.
# For MKL-1 USP7 inhibitor experiments, p53-WT control lines (WT, scrambled, AAVS1) and three p53-KO lines were treated with USP7 inhibitors and assessed by flow cytometry for surface HLA I as described above for MCC-301.
# surface HLA class I = test: USP7 inhibitor treatment of MCC lines, surface HLA-I by flow cytometry; type: cell-based, human; settings: 3 days
# [1] = test system: MKL-1 control or p53 KO cells; test: Cell cycle analysis (EdU/DAPI flow cytometry); type: cell-based, human; settings: MKL-1 TP53-WT and TP53-KO, 100 nM, three days
# Protocol: 1 million MKL-1 control or p53 KO cells were plated and treated with DMSO, XL177A (100 nM) or XL177B (100 nM) for three days. During the last hour of the three-day treatment, the cells were pulsed with 10 μM EdU nucleotide. The cells were collected by centrifugation, treated with Accutase™ (Stem Cell Technologies) to break apart clumps, washed with PBS and fixed using 4% Formaldehyde solution in PBS at Room temperature for 15 mins. Cells were washed with 1% BSA in PBS and resuspended in 70% ice cold ethanol and incubated at −20° C. overnight for additional fixing and permeabilization. The cells were stored in 70% ethanol at −20° C. until the day the data was acquired. On the day of data acquisition, the cells were collected by centrifugation and washed twice with PBS. The incorporated EdU in the cells were labeled with a CLICK reaction cocktail (1 mM CuSO4, 100 μM THPTA, 100 mM sodium ascorbate, and 2.2 μM Alexa 647 azide in PBS) at room temperature with rocking for 30 minutes. The samples were then washed with 1% BSA in PBS once followed by two washes with PBS and incubated with a 1 μg/ml DAPI, 100 ng/ml RNase A solution for one hour at Room temperature to stain the DNA. The samples were then passed through strainer tubes and analyzed using a BD Fortessa analyzer. The flow cytometry data was analyzed using the FlowJo Software. […]
# [2] = test system: HLA-I-bound peptidomes of MCC-301 cells; test: HLA-I-bound immunopeptidome of USP7 inhibitor treated MCC-301 cells (TMT LC-MS/MS); type: cell-based, human
# Protocol: Up to 40 million or 0.2 g of MCC cells were immunoprecipitated. Briefly, MCC cells were harvested and lysed in ice-cold lysis buffer containing […] (pH 8.0), 1 mM EDTA (pH 8.0), 0.1M sodium chloride, Triton X-100, 0.06M octyl β-d-glucopyranoside, 100 U/mL DNAse I, 1 mM phenylmethanesulfonyl fluoride (all from Sigma Aldrich), and protease inhibitor cocktail (Roche Diagnostics). Cell lysate was centrifuged at 12,700 rpm at 4° C. for 22 min. Lysate supernatant was coupled with Gammabind Plus sepharose beads (GE Healthcare) and incubated with 10 μg of HLA-I antibody (Clone W6/32, Santa Cruz Biotechnologies) at 4° C. under rotary agitation for 3 h. After incubation, the lysate-bead-antibody mixture was briefly centrifuged and the supernatant was discarded. Beads were washed with lysis buffer, consisting of wash buffer containing 40 mM Tris (pH 8.0), 1 mM EDTA (pH 8.0), 0.1M sodium chloride, 0.06M octyl β-d-glucopyranoside, and 20 mM Tris buffer, without protease inhibitors. Gel loading tips (Fisherbrand) were used to remove as much fluid from beads as possible. Peptides of up to three immunoprecipitations were combined, acid eluted, and analyzed using LC/MS-MS. Briefly, peptides were resuspended in 3% acetonitrile with 5% formic acid and loaded onto an analytical column (20-30 cm with 1.9 μm C18 Reprosil beads, Dr. Maisch HPLC GmbH); packed in-house). Peptides were eluted in a 6-30% gradient (EasyLC 1000 or 1200, Thermo Fisher Scientific) and analyzed on a QExactive Plus, Fusion Lumos, or Orbitrap Exploris 480 (Thermo Fisher Scientific). For Lumos measurements, peptides were also subjected to fragmentation if they were singly charged. For Orbitrap Exploris measurements (2 immunoprecipitations pooled, +/−IFN-γ, FIG. 3) and detection of the large T antigen peptide (3 immunoprecipitations of the MCC-367 cell line treated with IFN-γ) peptides were further fractionated using stage tip basic reverse phase separation with 2 punches of SDB-XC material (Empore 3M) and increasing concentrations of acetonitrile (5%, 10% and 30% in 0.1% NH4OH, pH 10). Fractions were analyzed on a Fusion Lumos or Orbitrap Exploris 480 equipped with a FAIMSpro interface. […]
# Mass spectra were interpreted using Spectrum Mill software package v7.1 pre-Release (Broad Institute, Cambridge, Mass.). […] MS/MS spectra were searched against a protein sequence database that contained 90,904 entries, including all UCSC Genome Browser genes with hg19 annotation of the genome and its protein coding transcripts (52,788 entries), common human virus sequences (30,181 entries), recurrently mutated proteins observed in tumors from 26 tissues (4,595 entries), 264 common laboratory contaminants as well as protein sequences containing somatic mutations detected in MCC cell lines (3,076 entries). […]
# USP7 = USP7 (Homo sapiens, UniProt Q93009); settings: enantiomer control vs XL177A; cited from earlier work
# USP7, sequence (Q93009 whole entry): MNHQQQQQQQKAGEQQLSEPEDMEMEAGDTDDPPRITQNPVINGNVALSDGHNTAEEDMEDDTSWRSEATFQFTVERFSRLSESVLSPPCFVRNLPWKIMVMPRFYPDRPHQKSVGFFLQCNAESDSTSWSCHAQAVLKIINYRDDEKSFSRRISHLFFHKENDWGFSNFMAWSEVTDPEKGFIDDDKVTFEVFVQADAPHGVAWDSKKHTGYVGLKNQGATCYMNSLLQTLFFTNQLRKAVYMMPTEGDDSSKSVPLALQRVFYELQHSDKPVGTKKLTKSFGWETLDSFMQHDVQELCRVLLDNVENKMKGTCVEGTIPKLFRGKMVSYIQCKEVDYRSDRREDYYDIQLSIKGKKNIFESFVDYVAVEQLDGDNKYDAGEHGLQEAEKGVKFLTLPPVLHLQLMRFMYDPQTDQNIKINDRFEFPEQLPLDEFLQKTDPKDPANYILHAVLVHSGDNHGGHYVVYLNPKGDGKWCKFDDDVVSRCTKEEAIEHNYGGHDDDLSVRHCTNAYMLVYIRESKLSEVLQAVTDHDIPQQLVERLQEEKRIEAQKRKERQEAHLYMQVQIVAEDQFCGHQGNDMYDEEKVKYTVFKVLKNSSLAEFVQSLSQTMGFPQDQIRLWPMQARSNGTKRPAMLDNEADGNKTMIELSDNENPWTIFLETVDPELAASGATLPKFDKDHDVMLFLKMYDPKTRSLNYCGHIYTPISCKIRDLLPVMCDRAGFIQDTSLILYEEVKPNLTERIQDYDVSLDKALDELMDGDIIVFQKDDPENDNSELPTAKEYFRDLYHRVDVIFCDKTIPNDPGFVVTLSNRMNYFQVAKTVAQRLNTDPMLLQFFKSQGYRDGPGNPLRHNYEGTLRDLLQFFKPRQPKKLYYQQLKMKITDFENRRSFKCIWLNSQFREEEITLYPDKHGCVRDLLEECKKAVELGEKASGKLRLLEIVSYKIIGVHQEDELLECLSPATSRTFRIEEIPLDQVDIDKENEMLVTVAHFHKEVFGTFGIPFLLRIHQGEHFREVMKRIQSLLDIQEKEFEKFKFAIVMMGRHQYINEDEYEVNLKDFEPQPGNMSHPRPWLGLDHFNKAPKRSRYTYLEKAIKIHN
# autologous T cells = test: IFN-γ ELISpot with patient MCC-367 PBMCs; type: cell-based, human; settings: 10 μg/ml peptide
# Protocol: Matching patient peripheral blood mononuclear cells (PBMCs) from patient MCC-367 were thawed, and 10^7 cells per well were seeded in 24 well plates overnight. Cells were stimulated with 10 μg/ml of the LT antigen peptide […] (identified in the MCC-367 HLA peptidome, FIG. 3F) in complete DMEM supplemented with 10% Human serum and 20 ng/ml IL-7 (PeproTech). After 3 days of stimulation, cells were supplemented with 20 units/mL IL-2 (PeproTech). After 10 days of stimulation, cells were cytokine deprived overnight. 50,000 cells per well were stimulated in an IFN-γ ELISpot assay with 10 μg/ml of the […] peptide. DMSO and an HIV-GAG peptide were used as negative controls. CEF (Mabtech) and PHA (Sigma Aldrich) were used as positive controls (not shown). ELISpot and T cell culture methods were described in detail previously.
# [3] = 100 nM, three lines (MCC-277, -290, -301)
# [4] = 100 nM, two MCPyV+ lines (MCC-301 and -277)
compound,measurement,setting,value
CN1CCN(CCC(=O)Nc2ccc3c(=O)n(CC4(O)CCN(C(=O)[C@@H](CCCNC(=O)c5ccc6c(Cl)c7c(nc6c5)CCCC7)Cc5ccccc5)CC4)cnc3c2)CC1 [XL177A],surface HLA-I relative to XL177B and DMSO,surface HLA-I; MKL-1 TP53-KO lines,increased
same,surface HLA-I relative to XL177B and DMSO,surface HLA-I; MKL-1 TP53-WT lines,increased
same,mean fold increase in expression of surface HLA class I relative to DMSO,surface HLA class I; [3],1.89 fold
same,range of fold increase in expression of surface HLA class I relative to DMSO,surface HLA class I; [3],1.60-2.27 fold
same,mean fold increase in expression of surface HLA-I relative to DMSO,surface HLA class I; [4],2.0 fold
same,range of fold increase in expression of surface HLA-I relative to DMSO,surface HLA class I; [4],1.78-2.27 fold
same,increase in HLA-I levels in MCC-290,surface HLA class I; MCC-290 (MCPyV−),more modest increase
same,increase in HLA I expression in MCC-320,surface HLA class I; MCC-320 (MCPyV−),did not exhibit a statistically significant increase and not
same,cell cycle shift,[1],slight cell cycle shifts from S to G1 phase
same,abundance of displayed HLA-I peptides compared to XL177B and untreated cells,[2],higher abundances of displayed peptides
same,"frequency of peptides displayed on each respective HLA-I gene (HLA-A, -B, -C)",[2],did not affect
same,percent of significantly differing peptides more abundant compared to untreated cells,[2]; out of 282 peptides,95.7%
same,number of peptides more abundant compared to untreated cells,[2]; out of 282 peptides whose abundance significantly differed (P<0.05),270 peptides
CN1CCN(CCC(=O)Nc2ccc3c(=O)n(CC4(O)CCN(C(=O)[C@H](CCCNC(=O)c5ccc6c(Cl)c7c(nc6c5)CCCC7)Cc5ccccc5)CC4)cnc3c2)CC1 [XL177B],potency relative to XL177A (fold less potent),USP7,500 fold
"TSDKAIELY [peptide derived from the OBD domain of MCPyV LT, detected in the MCC-367 HLA peptidome]",reactivity of autologous T cells by ELISpot,autologous T cells,confirmed
